Usually MIC stands for the lowest concentration that inhibits growth of the organism. Read a high MIC as a need for much substance.

Values after ≈ are worked out from the molar mass of the structure shown. Active and inactive are the calls of the source. The rule behind the calls is not given here.

Data set [1] concerns Mycobacterium tuberculosis. Put plainly: Antibacterial activity against Mycobacterium tuberculosis MTCC 300 after 7 days by resazurin microtiter assay. It is filed as functional. The conditions noted are these: for MIC: MTCC 300, 168 h.
The nature of data set [2]: Hemolytic activity in human erythrocytes after 1 hr. It is filed as ADME, cell-based, Erythrocyte. The note with it: read-out: Activity.

For the compound `NC(=S)N/N=C1\CSC(n2nc(-c3cn(-c4ccccc4)nc3-c3ccc([N+](=O)[O-])cc3)c(O)c2-c2ccc(Cl)cc2)=N1`, in data set [1], the “growth inhibition (GI)” value was “Active”. The hemolysis at 1 h in data set [2] is under 5%.
`NC(=S)N/N=C1\CSC(n2nc(-c3cn(-c4ccccc4)nc3-c3cccc([N+](=O)[O-])c3)c(O)c2-c2cccc([N+](=O)[O-])c2)=N1` returned an MIC in data set [1] of 3.9 mg/L (≈ 6.09 µM). Further, the hemolysis at 1 h in data set [2] was under 5%.
Regarding `NC(=S)N/N=C1\CSC(n2nc(-c3cn(-c4ccccc4)nc3-c3ccc([N+](=O)[O-])cc3)c(O)c2-c2ccc(F)cc2)=N1`, the “growth inhibition (GI)” value in data set [1] was “Active”. In addition, the hemolysis at 1 h in data set [2] was under 5%.
The compound `NC(=S)N/N=C1\CSC(n2nc(-c3cn(-c4ccccc4)nc3-c3ccc(Cl)cc3)c(O)c2-c2ccc(Cl)cc2)=N1` had a minimal inhibitory concentration (MIC) in data set [1] of 62.5 mg/L (≈ 101 µM). Besides, the hemolysis at 1 h in data set [2] is under 5%.
Take `NC(=S)N/N=C1\CSC(n2nc(-c3cn(-c4ccccc4)nc3-c3ccc(Br)cc3)c(O)c2-c2ccc(F)cc2)=N1`: the hemolysis at 1 h in data set [2] was under 5%.
On to `NC(=S)N/N=C1\CSC(n2nc(-c3cn(-c4ccccc4)nc3-c3ccc(Cl)cc3)c(O)c2-c2ccc(F)cc2)=N1`, for which, in data set [1], the “growth inhibition (GI)” value was “Active”. In addition, the hemolysis at 1 h in data set [2] is under 5%.
For the compound `NC(=S)N/N=C1\CSC(n2nc(-c3cn(-c4ccccc4)nc3-c3ccc([N+](=O)[O-])cc3)c(O)c2-c2cccc([N+](=O)[O-])c2)=N1`, the minimum inhibitory concentration (MIC) in data set [1] was 7.81 mg/L (≈ 12.2 µM). Also, the hemolysis at 1 h in data set [2] is under 5%.
On to `NC(=S)N/N=C1\CSC(n2nc(-c3cn(-c4ccccc4)nc3-c3ccc(Br)cc3)c(O)c2-c2ccc([N+](=O)[O-])cc2)=N1`, for which, in data set [2], the hemolysis at 1 h is under 5%.
Same read-out and setting: the figure for `NC(=S)N/N=C1\CSC(n2nc(-c3cn(-c4ccccc4)nc3-c3cccc([N+](=O)[O-])c3)c(O)c2-c2ccc(F)cc2)=N1` is under 5%.
With `CO[C@H]1/C=C/O[C@@]2(C)Oc3c(C)c(O)c4c(O)c(c(/C=N/N5CCN(C)CC5)c(O)c4c3C2=O)NC(=O)/C(C)=C\C=C\[C@H](C)[C@H](O)[C@@H](C)[C@@H](O)[C@@H](C)[C@H](OC(C)=O)[C@@H]1C` [RIFAMPIN], it took 0.24 mg/L (≈ 0.292 µM) to inhibit growth in data set [1] (MIC).
Regarding `NC(=S)N/N=C1\CSC(n2nc(-c3cn(-c4ccccc4)nc3-c3ccc(Br)cc3)c(O)c2-c2cccc([N+](=O)[O-])c2)=N1`, the hemolysis at 1 h in data set [2] was under 5%.
`NC(=S)N/N=C1\CSC(n2nc(-c3cn(-c4ccccc4)nc3-c3ccc(Cl)cc3)c(O)c2-c2ccc([N+](=O)[O-])cc2)=N1`: the “growth inhibition (GI)” value in data set [1] was “Active”. For the same compound, the hemolysis at 1 h in data set [2] was under 5%.
Consider `NC(=S)N/N=C1\CSC(n2nc(-c3cn(-c4ccccc4)nc3-c3ccccc3)c(O)c2-c2ccccc2)=N1`, for which the “growth inhibition (GI)” value in data set [1] was “Active”. In data set [2], the hemolysis at 1 h was under 5%.
In turn, `NNC(=O)c1ccncc1` [ISONIAZID] had an MIC in data set [1] of 0.48 mg/L (≈ 3.5 µM).
Consider `NC(=S)N/N=C1\CSC(n2nc(-c3cn(-c4ccccc4)nc3-c3cccc([N+](=O)[O-])c3)c(O)c2-c2ccc([N+](=O)[O-])cc2)=N1`, for which 3.9 mg/L (≈ 6.09 µM) was the least that counted as inhibitory in data set [1] (MIC). Moreover, in data set [2], the hemolysis at 1 h is under 5%.
As for `NC(=S)N/N=C1\CSC(n2nc(-c3cn(-c4ccccc4)nc3-c3ccc(Br)cc3)c(O)c2-c2ccc(Br)cc2)=N1`, in data set [2], the hemolysis at 1 h was under 5%.
On the same count and under the same terms, as for `NC(=S)N/N=C1\CSC(n2nc(-c3cn(-c4ccccc4)nc3-c3ccc(Br)cc3)c(O)c2-c2ccc(Cl)cc2)=N1`, the figure is under 5%.
As for `NC(=S)N/N=C1\CSC(n2nc(-c3cn(-c4ccccc4)nc3-c3ccc(Cl)cc3)c(O)c2-c2ccccc2)=N1`, the “growth inhibition (GI)” value in data set [1] was “Active”. Further, the hemolysis at 1 h in data set [2] is under 5%.
In data set [1], `NC(=S)N/N=C1\CSC(n2nc(-c3cn(-c4ccccc4)nc3-c3ccc([N+](=O)[O-])cc3)c(O)c2-c2ccc([N+](=O)[O-])cc2)=N1` displayed an MIC of 62.5 mg/L (≈ 97.6 µM). In addition, the hemolysis at 1 h in data set [2] is under 5%.
With `NC(=S)N/N=C1\CSC(n2nc(-c3cn(-c4ccccc4)nc3-c3cccc([N+](=O)[O-])c3)c(O)c2-c2ccc(Cl)cc2)=N1`, the lowest concentration to inhibit growth in data set [1] (MIC) was 62.5 mg/L (≈ 99.2 µM). Moreover, the hemolysis at 1 h in data set [2] is under 5%.
